# Measurements: patent US11957671B2, “Benzodioxane modulators of leukotriene A4 hydrolase (LTA4H) for prevention and treatment of aging-associated diseases” (Alkahest, Inc., priority 2021, dated 2024)
# Tested on: synthesis of LTB4 in human whole blood
# Experiment: human whole blood (HWB) assay, LTB4 production inhibition
# Format: cell-based
# Conditions: calcimycin 20 μM
# Description: The compounds of the invention are additionally tested in a human whole blood (HWB) assay to determine their ability to inhibit the synthesis of LTB4 in a cellular system. Compounds are combined with heparinized human whole blood and incubated for 15 minutes at 37° C. Calcimycin (20 μM final, prepared in phosphate-buffered saline, pH 7.4) is then added and the mixture is incubated for another 30 minutes at 37° C. The samples are centrifuged for 5 min at low speed (1500×g) and the plasma layer is removed. Plasma LTB4 concentrations are then measured using an antibody-based homogenous time-resolved fluorescence method (CisBio, Bedford, Mass.). In general, the preferred potency range (IC50) of compounds in the HWB assay is between 10 nM to 10 μM, the more preferred potency range is 10 nM to 1 μM, and the most preferred potency range is 10 nM to 100 nM.
row,SMILES,IC50
1,"c1cnc2c(c1)OC[C@H](c1ccc(CNC3CCC3)cc1)O2 [Example 173, N-{4-[(3S)-2,3-dihydro[1,4]dioxino[2,3-b]pyridin-3-yl]benzyl}cyclobutanamine]",72.8 nM
2,"CN1CCC2(CCN(Cc3ccc([C@H]4COc5ccccc5O4)cc3)CC2)C1=O [Example 121, 8-{4-[(2S)-2,3-dihydro-1,4-benzodioxin-2-yl]benzyl}-2-methyl-2,8-diazaspiro[4.5]decan-1-one]",159 nM
3,"c1cnc2c(c1)OC[C@H](c1ccc(CN3CCCCCC3)cc1)O2 [Example 139, (3S)-3-[4-(azepan-1-ylmethyl)phenyl]-2,3-dihydro[1,4]dioxino[2,3-b]pyridine]",13.2 nM
4,"CCN(C)Cc1ccc([C@H]2COc3cccnc3O2)cc1 [Example 140, N-{4-[(3S)-2,3-dihydro[1,4]dioxino[2,3-b]pyridin-3-yl]benzyl}-N-methylethanamine]",33.4 nM
5,"FC1CCN(Cc2ccc([C@H]3COc4cccnc4O3)cc2)CC1 [Example 155, (3S)-3-{4-[(4-fluoropiperidin-1-yl)methyl]phenyl}-2,3-dihydro[1,4]dioxino[2,3-b]pyridine]",95.4 nM
6,"O=C(O)C[C@@H]1CCCN(Cc2ccc([C@H]3COc4ccccc4O3)cc2)C1 [Example 183, [(3S)-1-{4-[(2S)-2,3-dihydro-1,4-benzodioxin-2-yl]benzyl)piperidin-3-yl]acetic acid]",151 nM
7,"c1cnc2c(c1)OC[C@H](c1ccc(CN3CCOCC3)cc1)O2 [Example 204, (3S)-3-[4-(morpholin-4-ylmethyl)phenyl]-2,3-dihydro[1,4]dioxino[2,3-b]pyridine]",95 nM
8,"c1cnc2c(c1)OC[C@H](c1ccc(CN3[C@H]4CC[C@@H]3CC4)cc1)O2 [Example 145, (3S)-3-{4-[(1s,4s)-7-azabicyclo[2.2.1]hept-7-ylmethyl]phenyl}-2,3-dihydro[1,4]dioxino[2,3-b]pyridine]",28.4 nM
9,"CC(=O)NC1CCN(Cc2ccc([C@H]3COc4cccnc4O3)cc2)CC1 [Example 160, N-(1-{4-[(3S)-2,3-dihydro[1,4]dioxino[2,3-b]pyridin-3-yl)benzyl}piperidin-4-yl)acetamide]",28 nM
10,"CC(C)(CN1CCCC1)NCc1ccc([C@H]2COc3cccnc3O2)cc1 [Example 157, N-{4-[(3S)-2,3-dihydro[1,4]dioxino[2,3-b]pyridin-3-yl]benzyl}-2-methyl-1-(pyrrolidin-1-yl)propan-2-amine]",35 nM
11,"CN(CCc1ccccn1)Cc1ccc([C@H]2COc3cccnc3O2)cc1 [Example 138, N-{4-[(3S)-2,3-dihydro[1,4]dioxino[2,3-b]pyridin-3-yl]benzyl}-N-methyl-2-(pyridin-2-yl)ethanamine]",76 nM
12,"CN(Cc1ccc([C@H]2COc3cccnc3O2)cc1)C1CCCC1 [Example 142, N-{4-[(3S)-2,3-dihydro[1,4]dioxino[2,3-b]pyridin-3-yl]benzyl}-N-methylcyclopentanamine]",24.4 nM
13,"c1cnc2c(c1)OC[C@H](c1ccc(CN3CCn4cnnc4C3)cc1)O2 [Example 156, (3S)-3-[4-(5,6-dihydro[1,2,4]triazolo[4,3-a]pyrazin-7(8H)-ylmethyl)phenyl]-2,3-dihydro[1,4]dioxino[2,3-b]pyridine]",159 nM
14,"O=C1NCCCC12CCN(Cc1ccc([C@H]3COc4ccccc4O3)cc1)CC2 [Example 116, 9-{4-[(2S)-2,3-dihydro-1,4-benzodioxin-2-yl]benzyl}-2,9-diazaspiro[5.5]undecan-1-one]",310 nM
15,"CC(=O)N1CCN(Cc2ccc([C@H]3COc4cccnc4O3)cc2)CC1 [Example 185, 1-(4-{4-[(3S)-2,3-dihydro[1,4]dioxino[2,3-b]pyridin-3-yl]benzyl}piperazin-1-yl)ethanone]",92.3 nM
16,"NC(=O)CN1CCCC12CCN(Cc1ccc([C@H]3COc4ccccc4O3)cc1)C2 (stereo partly drawn) [Example 123, 2-(7-{4-[(2S)-2,3-dihydro-1,4-benzodioxin-2-yl]benzyl}-1,7-diazaspiro[4.4]non-1-yl)acetamide]",312 nM
17,"CC(c1ccc([C@H]2COc3ccccc3O2)cc1)N1CCC(C(=O)O)CC1 (stereo partly drawn) [Example 227, 1-(1-{4-[(2S)-2,3-dihydro-1,4-benzodioxin-2-yl]phenyl}ethyl)piperidine-4-carboxylic acid]",307 nM
18,"CC1CCN(Cc2ccc([C@H]3COc4cccnc4O3)cc2)CC1 [Example 137, (3S)-3-{4-[(4-methylpiperidin-1-yl)methyl]phenyl}-2,3-dihydro[1,4]dioxino[2,3-b]pyridine]",27.6 nM
19,"O=C1NCCC12CCN(Cc1ccc([C@H]3COc4cccnc4O3)cc1)CC2 [Example 125, 8-{4-[(3S)-2,3-dihydro[1,4]dioxino[2,3-b]pyridin-3-yl]benzyl}-2,8-diazaspiro[4.5]decan-1-one]",39.2 nM
20,"CC(=O)N1CCCC12CCN(Cc1ccc([C@H]3COc4ccccc4O3)cc1)C2 (stereo partly drawn) [Example 118, 1-(7-{4-[(2S)-2,3-dihydro-1,4-benzodioxin-2-yl]benzyl}-1,7-diazaspiro[4.4]non-1-yl)ethanone]",256 nM
21,"CC(=O)N(C)C1CCN(Cc2ccc([C@H]3COc4ccccc4O3)cc2)C1 (stereo partly drawn) [Example 83, N-(1-{4-[(2S)-2,3-dihydro-1,4-benzodioxin-2-yl]benzyl}pyrrolidin-3-yl)-N-methylacetamide]",33.5 nM
22,"COC1CCN(Cc2ccc([C@H]3COc4cccnc4O3)cc2)C1 (stereo partly drawn) [Example 168, (3S)-3-{4-[(3-methoxypyrrolidin-1-yl)methyl]phenyl}-2,3-dihydro[1,4]dioxino[2,3-b]pyridine]",39 nM
23,"OC1CCN(Cc2ccc([C@H]3COc4cccnc4O3)cc2)CC1 [Example 186, 1-{4-[(3S)-2,3-dihydro[1,4]dioxino[2,3-b]pyridin-3-yl]benzyl}piperidin-4-ol]",36.5 nM
24,"CCN(CC)Cc1ccc([C@H]2COc3cccnc3O2)cc1 [Example 141, N-{4-[(3S)-2,3-dihydro[1,4]dioxino[2,3-b]pyridin-3-yl]benzyl}-N-ethylanamine]",32.8 nM
25,"O=C1CCCN1CC1CCN(Cc2ccc([C@H]3COc4ccccc4O3)cc2)CC1 [Example 99, 1-[(1-{4-[(2S)-2,3-dihydro-1,4-benzodioxin-2-yl]benzyl}piperidin-4-yl)methyl]pyrrolidin-2-one]",95.4 nM
26,"O[C@H]1CCN(Cc2ccc(C3COc4ccccc4O3)cc2)C1 (stereo partly drawn) [Example 9, (3S)-1-[4-(2,3-dihydro-1,4-benzodioxin-2-yl)benzyl]pyrrolidin-3-ol]",285 nM
27,"CN(Cc1ccc([C@H]2COc3ccccc3O2)cc1)C(C)(C)C [Example 81, N-{4-[(2S)-2,3-dihydro-1,4-benzodioxin-2-yl]benzyl}-N,2-dimethylpropan-2-amine]",80.7 nM
28,"c1cnc2c(c1)OC[C@H](c1ccc(CN3CCCC3)cc1)O2 [Example 126, (3S)-3-[4-(pyrrolidin-1-ylmethyl)phenyl]-2,3-dihydro[1,4]dioxino[2,3-b]pyridine]",32.3 nM

# Results, then the molecule that gave them:
row,IC50,SMILES
1,72.6 nM,"NC(=O)NC1CCN(Cc2ccc([C@H]3COc4ccccc4O3)cc2)CC1 [Example 175, 1-(1-{4-[(2S)-2,3-dihydro-1,4-benzodioxin-2-yl]benzyl}piperidin-4-yl)urea]"
2,324 nM,"O=C(C1CCN(Cc2ccc(C3COc4ccccc4O3)cc2)CC1)N1CCOCC1 (racemic) [Example 37, {1-[4-(2,3-dihydro-1,4-benzodioxin-2-yl)benzyl]piperidin-4-yl}(morpholin-4-yl)methanone]"
3,94.6 nM,"O=C(O)CCC1CCN(Cc2ccc([C@H]3COc4ccccc4O3)cc2)CC1 [Example 134, 3-(1-{4-[(2S)-2,3-dihydro-1,4-benzodioxin-2-yl]benzyl}piperidin-4-yl)propanoic acid]"
4,294 nM,"CNC(=O)C1CCN(Cc2ccc(C3COc4ccccc4O3)cc2)CC1 (racemic) [Example 25, 1-[4-(2,3-dihydro-1,4-benzodioxin-2-yl)benzyl]-N-methylpiperidine-4-carboxamide]"
5,180 nM,"COC1CCN(Cc2ccc([C@H]3COc4ccccc4O3)cc2)CC1 [Example 98, 1-{4-[(2S)-2,3-dihydro-1,4-benzodioxin-2-yl]benzyl}-4-methoxypiperidine]"
6,308 nM,"O=C(O)CCCC1CCN(Cc2ccc(C3COc4ccccc4O3)cc2)CC1 (racemic) [Example 26, 4-{1-[4-(2,3-dihydro-1,4-benzodioxin-2-yl)benzyl]piperidin-4-yl}butanoic acid]"
7,155 nM,"NC(=O)NC1CCN(Cc2ccc(C3COc4ccccc4O3)cc2)CC1 (racemic) [Example 53, 1-{1-[4-(2,3-dihydro-1,4-benzodioxin-2-yl)benzyl]piperidin-4-yl}urea]"
8,91.3 nM,"CC(C)(O)C(=O)NC1CCN(Cc2ccc([C@H]3COc4ccccc4O3)cc2)CC1 [Example 220, N-(1-{4-[(2S)-2,3-dihydro-1,4-benzodioxin-2-yl]benzyl}piperidin-4-yl)-2-hydroxy-2-methylpropanamide]"
9,169 nM,"O=C(O)[C@@H]1CCN(Cc2ccc([C@H]3COc4ccccc4O3)cc2)C1 [Example 214, (3R)-1-{4-[(2S)-2,3-dihydro-1,4-benzodioxin-2-yl]benzyl}pyrrolidine-3-carboxylic acid]"
10,83 nM,"c1ccc2c(c1)OCC(c1ccc(CN3CCCC3)cc1)O2 (stereo not shown) [Example 200, 1-[4-(2,3-dihydro-1,4-benzodioxin-2-yl)benzyl]pyrrolidine]"
11,160 nM,"CC(=O)NC1CCN(Cc2ccc([C@H]3COc4ccccc4O3)cc2)CC1 [Example 178, N-(1-(4-[(2S)-2,3-dihydro-1,4-benzodioxin-2-yl]benzyl}piperidin-4-yl)acetamide]"
12,145 nM,"O=C(NCCO)C1CCN(Cc2ccc(C3COc4ccccc4O3)cc2)CC1 (racemic) [Example 52, 1-[4-(2,3-dihydro-1,4-benzodioxin-2-yl)benzyl]-N-(2-hydroxyethyl)piperidine-4-carboxamide]"
